Measured values taken from patent publication US20240358672A1, “APPLICATION OF GENISTEIN AND ITS PHOSPHATE ESTER DERIVATIVE AND PHARMACEUTICAL COMPOSITION COMPRISING THE SAME” (National Taiwan University, priority 2023, published 2024).

What was measured:
various organs = conditions: in vivo
CB1 receptor = CB1 receptor (Homo sapiens, UniProt P21554); test: GTPase-Glo assay (in vitro GTPase assay); assay type: biochemical
[1] = system: LDL receptor knockout mice (B6.129S7-Ldlr^tm1Her/J); test: Chronic atherosclerosis in Ldlr−/− mice on high-fat diet; assay type: in vivo, mouse; conditions: HFD 12 weeks
From the text: FIG. 9A to 9E illustrate the effect of Δ^9-THC and genistein on the formation of chronic atherosclerosis according to Example 10. FIG. 9A: The body weights of Ldlr^−/− mice after exposure to (1) vehicle control (n=10), (2) Δ^9-THC (n=12), or (3) Δ^9-THC plus genistein (n=12). FIG. 9B: Lipid profiles of serum samples (left panel) and blood pressure (right panel) of Ldlr^−/− mice after exposure to (1) vehicle control (n=10 (left), n=3 (right)), (2) Δ^9-THC (n=12 (left), n=4 (right)), and (3) Δ^9-THC plus genistein (n=12 (left), n=4 (right)). The blood pressure was measured by tail-cuff. FIG. 9C: Oil red O staining of atherosclerotic plaques in cross-sections at the aortic root level (upper panel). Quantitation of atherosclerotic plaques: (1) vehicle control (n=10), (2) Δ^9-THC (n=10), and (3) Δ^9-THC plus genistein (n=11) (bottom panel). FIG. 9D: Gross images of oil red O stained Ldlr^−/− thoracic aorta are shown (left panel). Quantification of plaque size by en face analysis of thoracic aorta after exposure to (1) vehicle control (n=10), (2) Δ^9-THC (n=12), or (3) Δ^9-THC plus genistein (n=12). FIG. 9E: Immunostaining of CD68 in cross-sections at the aortic root level (upper panel). Quantitation of CD68-positive area from (1) vehicle control (n=10), (2) Δ^9-THC (n=9), and (3) Δ^9-THC plus genistein (n=10) (bottom panel).
In this part, In order to investigate the effect of Δ^9-THC and genistein in chronic atherosclerosis formation, LDL receptor knockout mice (B6.129S7-Ldlr^tm1Her/J) were fed a high-fat diet (HFD) for 12 weeks and treated with (1) vehicle control (n=10 to 12/group), (2) Δ^9-THC (n=10 to 12/group, administered Δ^9-THC 1 mg/kg), or (3) Δ^9-THC and genistein (n=10 to 12/group, administered Δ^9-THC 1 mg/kg plus genistein 50 mg/kg). […] After 12 weeks of HFD, the mice were euthanized, and the atherosclerotic lesion area was examined by cross-sections of the aortic root and an en face analysis of the thoracic aorta. […] Macrophage recruitment in the aortic root was analyzed using aortic plaque stained with an anti-CD68 antibody.

[2] = system: WT hiPSC-ECs and CB1 CRISPRi hiPSC-ECs; test: TNF-α challenge of WT and CB1 CRISPRi hiPSC-ECs; conditions: 10 ng/ml TNF-α with 10 μM genistein
[3] = In vivo fluorescence imaging (IVIS) biodistribution; conditions: inferred from BODIPY517/547-genistein distribution
Procedure: High-magnification images of the green-boxed area are shown with the scale bar at 100 mm. […] Total cell lysates were prepared, and the expression of phosphorylated NF-κB and NF-κB was analyzed by western blot analysis. Immunoblots were quantified by ImageJ software (left panel). […] The in vivo fluorescence images were detected by the IVIS Spectrum at indicated time points. All mice were sacrificed at 48 hours, and major organs were collected and then fixed using formalin (left panel). Fluorescence images were quantified using the IVIS imaging system. […] Images of the brain, heart and lung, thoracic aorta, liver, spleen, kidney, intestine, colon, and blood were obtained from mice (n=5) (right panel). Fluorescence images were quantified using the ImageJ software (middle bottom).

hiPSC-ECs [4] = test: CellROX oxidative stress assay / ROS-Glo H2O2 assay in hiPSC-ECs; conditions: 5 μM Δ^9-THC alone, 48 hours
HUVECs = test: qPCR gene expression in HUVECs; conditions: 5 μM Δ^9-THC, 48 hours, normalized to GAPDH
hiPSC-ECs [5] = test: Wash-out experiments, inflammation-related gene expression in hiPSC-ECs; conditions: 5 μM Δ^9-THC 48 hours, then fresh medium
hiPSC-ECs [6] = test: Monocyte (U937) adhesion assay on hiPSC-ECs; conditions: 5 μM Δ^9-THC alone, 48 hours
[7] = system: human endothelial cells (HUVECs and HCAECs); test: CellTiter-Glo cell viability, human endothelial cells; conditions: increasing concentrations of Δ^9-THC, 48 hours
hiPSC-ECs [8] = test: CellTiter-Glo cell viability, hiPSC-ECs; conditions: various concentrations, 24 or 48 hours
[9] = Plasma concentration by LC-MS analysis; conditions: Δ^9-THC 1 mg/kg
[10] = Δ^9-THC 1 mg/kg plus genistein 50 mg/kg

CB1 receptor, sequence (P21554 whole entry): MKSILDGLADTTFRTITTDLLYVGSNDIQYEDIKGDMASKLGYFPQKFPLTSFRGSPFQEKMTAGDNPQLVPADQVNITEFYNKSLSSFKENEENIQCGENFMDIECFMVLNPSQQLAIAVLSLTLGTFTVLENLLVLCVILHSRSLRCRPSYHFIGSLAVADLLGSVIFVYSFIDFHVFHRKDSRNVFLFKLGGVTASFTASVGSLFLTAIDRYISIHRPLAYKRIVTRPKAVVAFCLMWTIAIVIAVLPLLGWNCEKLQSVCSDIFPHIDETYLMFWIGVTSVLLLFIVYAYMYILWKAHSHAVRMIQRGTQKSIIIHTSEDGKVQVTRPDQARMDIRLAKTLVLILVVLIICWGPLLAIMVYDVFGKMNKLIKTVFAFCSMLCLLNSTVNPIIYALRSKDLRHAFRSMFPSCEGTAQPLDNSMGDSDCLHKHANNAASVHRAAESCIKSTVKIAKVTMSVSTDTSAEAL

In the case of `O=c1c(-c2ccc(O)cc2)coc2cc(O)cc(O)c12` [genistein], the “toxicity to various organs” value (various organs) is reported as “did not exhibit any toxicity to various organs”, the “function at CB1 in in vitro GTPase assay” value (CB1 receptor) is reported as “neutral antagonist” and the “GTP turnover compared with Apo” value (CB1 receptor; GTPase-Glo assay) is reported as “same GTP turnover as Apo”. For the same compound, the “CD68-positive area in the aortic root” value [1, 10] was “rescued”, the “plaque formation, en face analysis of the thoracic aorta (oil red O)” value [1, 10] was “improvement of plaque formation” and the “plaque size, cross-sections of the aortic root” value [1, 10] was “ameliorated plaque size”. For the same compound, the “serum lipid profiles or blood pressure” value [1, 10] was “Neither Δ^9-THC nor cotreatment with Δ^9-THC and genistein affected”, the “expression of ILIA” value ([2]; CB1 CRISPRi hiPSC-ECs) was “increased significantly” and the “TNF-α-increased expression of CXCR8” value ([2]; WT hiPSC-ECs) was “attenuated”. The “TNF-α-increased expression of IL6” value ([2]; WT hiPSC-ECs) was “attenuated”, the “expression of ILIA” value ([2]; WT hiPSC-ECs) was “decreased” and the “TNF-α-increased expression of SOD1” value ([2]; WT or CB1 CRISPRi hiPSC-ECs) was “not attenuated”. The “blood-brain barrier (BBB) penetration” value [3] was “poor blood-brain barrier (BBB) penetration”.
In the case of `CCCCCc1cc(O)c2c(c1)OC(C)(C)[C@@H]1CCC(C)=C[C@@H]21` [Δ^9-THC, Δ^9-tetrahydrocannabinol], the “cellular oxidative stress (CellROX)” value (hiPSC-ECs [4]) is reported as “induced cellular oxidative stress”, the antioxidant-related gene expression (HUVECs) is reported as “reduced the antioxidant-related gene expression” and the “expression of inflammation-related genes” value (HUVECs) is reported as “induced the expression of inflammation-related genes”. The “time the induced expression of proinflammatory cytokines and chemokines was sustained (recovery time)” value (hiPSC-ECs [5]) was 8 to 10 days, the “monocyte adhesion to hiPSC-ECs” value (hiPSC-ECs [6]) was “increased adhesion” and the “cytotoxicity (cell viability)” value [7] was “induced cytotoxicity”. For the same compound, the “cytotoxicity (cell viability)” value (hiPSC-ECs [8]) was “induced cytotoxicity”, the plasma concentration [9] was about 100 ng/mL and the “CD68-positive area in the aortic root” value ([1]; Δ^9-THC 1 mg/kg) was “significantly increased”. For the same compound, the “plaque size, cross-sections of the aortic root” value ([1]; Δ^9-THC 1 mg/kg) was “significantly increased plaque size” and the “serum lipid profiles or blood pressure” value ([1]; Δ^9-THC 1 mg/kg) was “Neither Δ^9-THC nor cotreatment with Δ^9-THC and genistein affected”.
